Measurements as given in ChEMBL document CHEMBL5291721, “A preclinical secondary pharmacology resource illuminates target-adverse drug reaction associations of marketed drugs” (Nat Commun, 2023).

Key:
[1] = target: T1, Type-1 angiotensin II receptor (Homo sapiens, UniProt P30556)
T1 sequence (P30556 whole entry): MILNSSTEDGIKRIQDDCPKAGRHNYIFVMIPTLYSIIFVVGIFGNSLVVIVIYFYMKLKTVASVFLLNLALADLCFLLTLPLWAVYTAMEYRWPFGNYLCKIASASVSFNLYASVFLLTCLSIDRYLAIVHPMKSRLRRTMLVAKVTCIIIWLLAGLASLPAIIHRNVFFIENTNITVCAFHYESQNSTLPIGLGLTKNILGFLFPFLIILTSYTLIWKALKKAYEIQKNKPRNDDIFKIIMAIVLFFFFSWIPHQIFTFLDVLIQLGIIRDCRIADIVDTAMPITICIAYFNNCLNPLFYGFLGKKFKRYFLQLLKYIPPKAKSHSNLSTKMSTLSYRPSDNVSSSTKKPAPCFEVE

B2 bradykinin receptor = target: T2, B2 bradykinin receptor (Homo sapiens, UniProt P30411)
T2 sequence (P30411 whole entry): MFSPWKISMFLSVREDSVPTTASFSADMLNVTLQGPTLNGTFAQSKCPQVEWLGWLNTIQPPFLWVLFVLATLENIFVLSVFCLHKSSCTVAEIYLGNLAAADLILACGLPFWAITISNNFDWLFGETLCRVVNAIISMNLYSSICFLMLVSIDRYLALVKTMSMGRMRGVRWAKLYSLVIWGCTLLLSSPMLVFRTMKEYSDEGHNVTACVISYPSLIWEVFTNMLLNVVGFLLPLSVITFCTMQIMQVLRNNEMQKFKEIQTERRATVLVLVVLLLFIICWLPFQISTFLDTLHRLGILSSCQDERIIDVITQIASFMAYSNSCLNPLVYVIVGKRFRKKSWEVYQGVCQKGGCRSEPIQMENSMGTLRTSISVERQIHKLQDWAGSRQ

[2] = target: T3, Muscarinic acetylcholine receptor M2 (Homo sapiens, UniProt P08172); type: functional, cell-based
T3 sequence (P08172 whole entry): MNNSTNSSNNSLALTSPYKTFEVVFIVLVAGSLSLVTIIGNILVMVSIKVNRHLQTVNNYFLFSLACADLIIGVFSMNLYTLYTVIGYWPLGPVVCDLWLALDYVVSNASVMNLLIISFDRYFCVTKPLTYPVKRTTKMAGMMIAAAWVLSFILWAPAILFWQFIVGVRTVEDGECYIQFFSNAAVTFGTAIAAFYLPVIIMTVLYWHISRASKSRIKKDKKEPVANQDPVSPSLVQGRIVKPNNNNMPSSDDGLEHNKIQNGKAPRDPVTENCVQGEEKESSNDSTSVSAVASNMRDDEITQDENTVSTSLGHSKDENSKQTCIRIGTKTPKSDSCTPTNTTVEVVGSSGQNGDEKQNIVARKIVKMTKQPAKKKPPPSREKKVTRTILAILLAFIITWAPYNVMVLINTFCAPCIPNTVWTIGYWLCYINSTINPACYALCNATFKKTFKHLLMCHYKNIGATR

Estrogen receptor = target: T4, Estrogen receptor (Homo sapiens, UniProt P03372)
T4 sequence (P03372 whole entry): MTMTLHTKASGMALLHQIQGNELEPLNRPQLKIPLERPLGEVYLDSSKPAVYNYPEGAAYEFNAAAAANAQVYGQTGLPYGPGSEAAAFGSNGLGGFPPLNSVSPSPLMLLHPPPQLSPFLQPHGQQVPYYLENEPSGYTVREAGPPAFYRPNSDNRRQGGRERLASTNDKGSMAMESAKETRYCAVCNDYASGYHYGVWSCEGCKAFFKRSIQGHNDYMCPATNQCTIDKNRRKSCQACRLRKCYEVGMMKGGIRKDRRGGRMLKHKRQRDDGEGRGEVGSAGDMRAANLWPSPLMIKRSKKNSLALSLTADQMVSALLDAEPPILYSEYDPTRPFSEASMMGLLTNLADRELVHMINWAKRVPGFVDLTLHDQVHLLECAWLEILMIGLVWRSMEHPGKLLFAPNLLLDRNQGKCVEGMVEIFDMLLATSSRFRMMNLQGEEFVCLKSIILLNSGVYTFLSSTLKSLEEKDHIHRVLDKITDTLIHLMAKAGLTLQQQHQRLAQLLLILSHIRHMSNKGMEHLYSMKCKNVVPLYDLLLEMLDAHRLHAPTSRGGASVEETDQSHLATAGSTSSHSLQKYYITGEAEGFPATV

[3] = target: Growth hormone secretagogue receptor type 1 (Homo sapiens, UniProt Q92847)
Growth hormone secretagogue receptor type 1, sequence (Q92847 whole entry): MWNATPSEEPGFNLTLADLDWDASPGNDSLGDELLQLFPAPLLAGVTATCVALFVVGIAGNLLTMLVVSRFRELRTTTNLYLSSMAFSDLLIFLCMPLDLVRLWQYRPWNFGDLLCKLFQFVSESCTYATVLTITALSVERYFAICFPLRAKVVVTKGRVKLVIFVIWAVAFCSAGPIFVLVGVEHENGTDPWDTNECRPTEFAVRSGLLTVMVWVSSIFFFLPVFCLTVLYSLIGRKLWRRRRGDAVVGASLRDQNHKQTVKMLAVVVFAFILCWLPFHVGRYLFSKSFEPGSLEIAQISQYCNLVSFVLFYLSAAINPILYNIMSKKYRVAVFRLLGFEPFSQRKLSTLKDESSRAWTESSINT

[4] = target: T5, 5-hydroxytryptamine receptor 2C (Homo sapiens, UniProt P28335)
T5 sequence (P28335 whole entry): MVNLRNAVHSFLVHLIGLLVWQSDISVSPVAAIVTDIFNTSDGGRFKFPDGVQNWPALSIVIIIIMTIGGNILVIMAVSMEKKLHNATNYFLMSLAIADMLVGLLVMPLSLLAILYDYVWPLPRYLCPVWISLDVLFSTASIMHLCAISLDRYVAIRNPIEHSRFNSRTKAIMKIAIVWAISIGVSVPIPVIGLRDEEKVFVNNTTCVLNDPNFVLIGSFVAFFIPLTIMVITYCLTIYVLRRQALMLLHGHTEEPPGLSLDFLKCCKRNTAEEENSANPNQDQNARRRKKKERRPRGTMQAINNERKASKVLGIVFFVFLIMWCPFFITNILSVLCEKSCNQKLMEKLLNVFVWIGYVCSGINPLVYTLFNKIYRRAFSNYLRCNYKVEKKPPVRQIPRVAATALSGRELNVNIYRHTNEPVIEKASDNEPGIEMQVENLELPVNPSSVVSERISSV

[5] = target: T6, Amine oxidase [flavin-containing] A (Homo sapiens, UniProt P21397); type: functional
T6 sequence (P21397 whole entry): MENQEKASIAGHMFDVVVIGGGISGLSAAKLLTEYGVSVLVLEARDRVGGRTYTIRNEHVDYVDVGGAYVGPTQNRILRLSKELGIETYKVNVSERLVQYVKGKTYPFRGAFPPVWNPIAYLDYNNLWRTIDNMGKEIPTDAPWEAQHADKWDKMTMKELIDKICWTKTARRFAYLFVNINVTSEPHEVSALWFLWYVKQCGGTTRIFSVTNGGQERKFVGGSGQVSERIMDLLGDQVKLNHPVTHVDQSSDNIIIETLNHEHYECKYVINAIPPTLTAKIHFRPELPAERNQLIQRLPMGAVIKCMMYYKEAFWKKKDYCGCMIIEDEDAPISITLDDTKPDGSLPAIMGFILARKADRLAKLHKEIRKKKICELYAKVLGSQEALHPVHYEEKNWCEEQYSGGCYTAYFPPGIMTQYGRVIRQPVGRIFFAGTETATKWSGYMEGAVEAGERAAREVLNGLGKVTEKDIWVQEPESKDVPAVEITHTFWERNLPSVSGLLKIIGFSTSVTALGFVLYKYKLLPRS
Further: assay procedure not described here.

C/C=C(/C(=C/C)c1ccc(O)cc1)c1ccc(O)cc1 [DIENESTROL]
AC50 [1]: > 10 µM
AC50 (B2 bradykinin receptor): > 10 µM
AC50 [2]: > 10 µM
AC50 (Estrogen receptor): 0.0035 µM
AC50 [3]: > 10 µM
AC50 [4]: > 30 µM
AC50 [5]: > 10 µM

CN[C@]1(c2ccccc2Cl)CCCCC1=O [ESKETAMINE]
AC50 [1]: > 30 µM
AC50 (B2 bradykinin receptor): > 30 µM
AC50 [2]: > 30 µM
AC50 (Estrogen receptor): > 30 µM
AC50 [3]: > 30 µM
AC50 [4]: > 30 µM
AC50 [5]: > 30 µM

COc1ccc([C@@H]2CC(=O)c3c(O)cc(O)cc3O2)cc1O [HESPERETIN]
AC50 [1]: > 10 µM
AC50 (B2 bradykinin receptor): > 10 µM
AC50 [2]: > 10 µM
AC50 (Estrogen receptor): > 10 µM
AC50 [3]: > 10 µM
AC50 [4]: > 30 µM
AC50 [5]: > 10 µM

CNCCc1ccc(OC(=O)C(C)C)c(OC(=O)C(C)C)c1 [IBOPAMINE]
AC50 [1]: > 30 µM
AC50 (B2 bradykinin receptor): > 30 µM
AC50 [2]: > 30 µM
AC50 (Estrogen receptor): > 30 µM
AC50 [3]: > 30 µM
AC50 [4]: > 30 µM
AC50 [5]: > 30 µM

CCOC(=O)C1=C(C)NC(C)=C(C(=O)OCC)C1c1ccccc1/C=C/C(=O)OC(C)(C)C [LACIDIPINE]
AC50 [1]: > 30 µM
AC50 (B2 bradykinin receptor): > 30 µM
AC50 [2]: > 30 µM
AC50 (Estrogen receptor): > 30 µM
AC50 [3]: > 30 µM
AC50 [4]: > 30 µM
AC50 [5]: > 30 µM

CCC[C@@H]1C[C@@H](C(=O)N[C@@H]([C@H]2O[C@H](SC)[C@H](O)[C@@H](O)[C@H]2O)[C@@H](C)O)N(C)C1 [LINCOMYCIN]
AC50 [1]: > 10 µM
AC50 (B2 bradykinin receptor): > 10 µM
AC50 [2]: > 10 µM
AC50 (Estrogen receptor): > 10 µM
AC50 [3]: > 10 µM
AC50 [4]: > 30 µM
AC50 [5]: > 10 µM

COC(=O)C1=C(C)NC(C)=C(C(=O)OCCN2CCN(C(c3ccccc3)c3ccccc3)CC2)C1c1cccc([N+](=O)[O-])c1 (stereo unspecified) [MANIDIPINE 6300]
AC50 [1]: > 30 µM
AC50 (B2 bradykinin receptor): > 30 µM
AC50 [2]: > 30 µM
AC50 (Estrogen receptor): > 1 µM
AC50 [3]: > 30 µM
AC50 [4]: > 30 µM
AC50 [5]: > 30 µM

C=C1c2cccc(O)c2C(=O)C2=C(O)[C@]3(O)C(=O)C(C(N)=O)=C(O)[C@@H](N(C)C)[C@@H]3[C@@H](O)[C@H]12 [METHACYCLINE]
AC50 [1]: > 10 µM
AC50 (B2 bradykinin receptor): > 30 µM
AC50 [2]: > 10 µM
AC50 (Estrogen receptor): > 30 µM
AC50 [3]: > 30 µM
AC50 [4]: > 30 µM
AC50 [5]: > 10 µM

CN(Cc1cnc2nc(N)nc(N)c2n1)c1ccc(C(=O)N[C@@H](CCC(=O)O)C(=O)O)cc1 [METHOTREXATE]
AC50 [1]: > 30 µM
AC50 (B2 bradykinin receptor): > 30 µM
AC50 [2]: > 10 µM
AC50 (Estrogen receptor): > 30 µM
AC50 [3]: > 30 µM
AC50 [4]: > 30 µM
AC50 [5]: > 10 µM

O=C(O)c1cccnc1Nc1cccc(C(F)(F)F)c1 [NIFLUMIC ACID]
AC50 [1]: > 10 µM
AC50 (B2 bradykinin receptor): > 10 µM
AC50 [2]: > 10 µM
AC50 (Estrogen receptor): > 10 µM
AC50 [3]: > 10 µM
AC50 [4]: > 30 µM
AC50 [5]: > 10 µM

O=C1c2cccc3c2[C@H](CCC3)CN1[C@@H]1CN2CCC1CC2 [PALONOSETRON]
AC50 [1]: > 30 µM
AC50 (B2 bradykinin receptor): > 30 µM
AC50 [2]: > 30 µM
AC50 (Estrogen receptor): > 30 µM
AC50 [3]: > 30 µM
AC50 [4]: > 30 µM
AC50 [5]: > 30 µM

OC[C@H]1O[C@@H](n2cnc3c2NC=NC[C@H]3O)C[C@@H]1O [PENTOSTATIN]
AC50 [1]: > 30 µM
AC50 (B2 bradykinin receptor): > 30 µM
AC50 [2]: > 30 µM
AC50 (Estrogen receptor): > 30 µM
AC50 [3]: > 30 µM
AC50 [4]: > 10 µM
AC50 [5]: > 30 µM

O=C1c2ccccc2C(=O)C1c1ccccc1 [PHENINDIONE]
AC50 [1]: > 10 µM
AC50 (B2 bradykinin receptor): > 10 µM
AC50 [2]: > 10 µM
AC50 (Estrogen receptor): > 10 µM
AC50 [3]: > 10 µM
AC50 [4]: > 30 µM
AC50 [5]: > 10 µM

Cc1cccc(C)c1NC(=O)CC12CCCN1CCC2 [PILSICAINIDE]
AC50 [1]: > 30 µM
AC50 (B2 bradykinin receptor): > 30 µM
AC50 [2]: > 30 µM
AC50 (Estrogen receptor): > 30 µM
AC50 [3]: > 30 µM
AC50 [4]: > 30 µM
AC50 [5]: > 30 µM

CN[C@@H](C)[C@@H](O)c1ccccc1 [PSEUDOEPHEDRINE]
AC50 [1]: > 30 µM
AC50 (B2 bradykinin receptor): > 30 µM
AC50 [2]: > 10 µM
AC50 (Estrogen receptor): > 30 µM
AC50 [3]: > 30 µM
AC50 [4]: > 30 µM
AC50 [5]: > 10 µM

CCCN1CC(NS(=O)(=O)N(CC)CC)CC2Cc3c(O)cccc3CC21 (stereo unspecified) [QUINAGOLIDE]
AC50 [1]: > 30 µM
AC50 (B2 bradykinin receptor): > 30 µM
AC50 [2]: > 30 µM
AC50 (Estrogen receptor): > 30 µM
AC50 [3]: > 30 µM
AC50 [4]: > 30 µM
AC50 [5]: > 30 µM

C[C@]12C=CC(=O)C=C1CC[C@@H]1[C@@H]2CC[C@]2(C)OC(=O)CC[C@@H]12 [TESTOLACTONE]
AC50 [1]: > 10 µM
AC50 (B2 bradykinin receptor): > 10 µM
AC50 [2]: > 10 µM
AC50 (Estrogen receptor): > 10 µM
AC50 [3]: > 10 µM
AC50 [4]: > 30 µM
AC50 [5]: > 10 µM

CCOC(=O)c1c(CSc2ccccc2)n(C)c2cc(Br)c(O)c(CN(C)C)c12 [UMIFENOVIR]
AC50 [1]: > 30 µM
AC50 (B2 bradykinin receptor): > 30 µM
AC50 [2]: 28 µM
AC50 (Estrogen receptor): > 30 µM
AC50 [3]: > 30 µM
AC50 [4]: 2.6 µM
AC50 [5]: > 30 µM
